Experimental findings from patent US8822494B2 (Pfizer Inc., priority 2012, dated 2014) are described below.

Structures are written as SMILES. Like-named read-outs stand apart in the source and are kept apart here.

In assay [1] the target is T1, Human D1 (Homo sapiens (Human), UniProt P21728). Description: Human D1 Receptor Binding Assay ([3H]-SCH23390 competition). The settings on record: read-out: Human D1 Receptor Binding, Ki (μM); Geometric mean of 2-3 determinations; over-expressing LTK human cell lines, 0.5 nM [3H]-SCH23390, 30 min at 37° C.; footnote b = single determination, c = geometric mean of ≧4 determinations. The method, then:
D1 binding assays were performed using over-expressing LTK human cell lines. […] These ligand and tissue concentrations were used in time course studies to determine linearity and equilibrium conditions for binding. […] The pellet was resuspended in assay buffer [50 mM Tris (pH 7.4@ RT) containing 4 mM MgSO4 and 0.5 mM EDTA]. […] Non-specific binding was determined by radioligand binding in the presence of a saturating concentration of (+)-Butaclamol (10 μM), a D1 antagonist. After a 30 minute incubation period at 37° C., assay samples were rapidly filtered through Unifilter-96 GF/B PEI-coated filter plates and rinsed with 50 mM Tris buffer (pH 7.4 at 4° C.). […] Ki values were calculated according to the Cheng-Prusoff equation: […]

Assay [2] addresses T1, Human D1. Description: D1 cAMP HTRF Assay. The class given is cell-based. As to conditions: HEK293T/hD1#1 stable cell line, 30 min at room temperature, footnote a = geometric mean of ≧7 determinations. The source says:
This assay was used to determine the ability of a test compound to agonize (including partially agonize) D1. A Mab anti-cAMP labeled Cryptate visualizes the tracer. […] The signal, therefore, is inversely proportional to the concentration of cAMP in the sample.
The cAMP Dynamic kit was obtained from Cisbio International (Cisbio 62AM4PEJ). Multidrop Combi (Thermo Scientific) was used for assay additions. An EnVision (PerkinElmer) reader was used to read HTRF.
A HEK293T/hD1#1 stable cell line was constructed internally (Pfizer Ann Arbor).
Media was removed and cell pellet was re-suspended in PBS/[…] generating 2e5 cells/mL. […] Working solutions of cAMP-D2 and anti-cAMP-cryptate were prepared according to Cisbio instructions. […] The assay plate was incubated for 1 hour at room temperature. The assay plate was read on an EnVision plate reader using Cisbio recommended settings.
Data analysis was done using computer software. Percent effects were calculated from the compound controls. Ratio EC50 was determined using the raw ratio data from the EnVision reader. The cAMP standard curve was used in an analysis program to determine cAMP concentrations from raw ratio data. cAMP EC50 was determined using the calculated cAMP data.

Where [3] appears, read: read-out: Human D1 cAMP HTRF, EC50 (μM), Geometric mean of 2-6 determinations.

T1 sequence (P21728 whole entry): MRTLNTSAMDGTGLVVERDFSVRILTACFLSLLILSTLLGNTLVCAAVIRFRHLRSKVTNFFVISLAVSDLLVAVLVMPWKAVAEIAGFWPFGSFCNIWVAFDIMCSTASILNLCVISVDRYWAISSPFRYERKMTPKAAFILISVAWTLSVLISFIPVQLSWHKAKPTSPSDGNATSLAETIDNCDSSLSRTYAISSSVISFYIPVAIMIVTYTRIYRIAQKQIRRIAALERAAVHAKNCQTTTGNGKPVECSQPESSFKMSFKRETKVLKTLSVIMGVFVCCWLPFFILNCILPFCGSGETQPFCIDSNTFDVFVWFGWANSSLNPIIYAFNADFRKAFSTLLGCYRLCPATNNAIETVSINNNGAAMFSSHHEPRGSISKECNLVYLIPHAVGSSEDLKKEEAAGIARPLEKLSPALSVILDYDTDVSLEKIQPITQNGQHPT

With `Cc1cc(Oc2nccc3n[nH]cc23)ccc1-c1c(C)n[nH]c(=O)c1C` (single isomer, unassigned) [Example 3, (+)-4,6-dimethyl-5-[2-methyl-4-(1H-pyrazolo[4,3-c]pyridin-4-yloxy)phenyl]pyridazin-3(2H)-one], at Human D1 [1], the Ki stood at 0.00976 µM. In addition, the concentration for a half-maximal effect (EC50) at Human D1 [2] turned out to be 0.0151 µM.
Regarding `Cc1cc(Oc2nccc3n[nH]cc23)ccc1-c1c(C)n[nH]c(=O)c1C` (single isomer, unassigned) [Example 4, (−)-4,6-dimethyl-5-[2-methyl-4-(1H-pyrazolo[4,3-c]pyridin-4-yloxy)phenyl]pyridazin-3(2H)-one], the inhibition constant Ki at Human D1 [1] amounted to 0.0104 µM. Besides, the EC50 at Human D1 [2] amounted to 0.0105 µM.
With `Cc1cc(Oc2nccc3n[nH]cc23)ccc1-c1c(C)c(=O)[nH]c(=O)n1C` (single isomer, unassigned) [Example 8, (−)-1,5-dimethyl-6-[2-methyl-4-(1H-pyrazolo[4,3-c]pyridin-4-yloxy)phenyl]pyrimidine-2,4(1H,3H)-dione], the Ki on Human D1 [1] worked out at 0.00183 µM. The EC50 on Human D1 [2] was less than 0.00222 µM.
In the same order, the values of `Cc1cc(Oc2nccc3[nH]ccc23)ccc1-c1c(C)ncc(=O)n1C` (single isomer, unassigned) [Example 26, (−)-1,5-dimethyl-6-[2-methyl-4-(1H-pyrrolo[3,2-c]pyridin-4-yloxy)phenyl]pyrazin-2(1H)-one] are 0.00456 µM and 0.073 µM.
As to `Cc1cc(Oc2nccc3[nH]ccc23)ccc1-c1c(C)ncc(=O)n1C` (single isomer, unassigned) [Example 27, (+)-1,5-dimethyl-6-[2-methyl-4-(1H-pyrrolo[3,2-c]pyridin-4-yloxy)phenyl]pyrazin-2(1H)-one], on Human D1 [1], the Ki was 0.0106 µM. The same compound came in with an EC50 on Human D1 [2] of 0.0646 µM.
In the same order, the values of `Cc1cc(Oc2nccc3n[nH]cc23)ccc1-c1c(C)ncc(=O)n1C` (single isomer, unassigned) [Example 39, (−)-1,5-dimethyl-6-[2-methyl-4-(1H-pyrazolo[4,3-c]pyridin-4-yloxy)phenyl]pyrazin-2(1H)-one] are 0.0418 µM and 0.168 µM.
For `Cc1cc(Oc2nccc3n[nH]cc23)ccc1-c1c(C)ncc(=O)n1C` (single isomer, unassigned) [Example 40, (+)-1,5-dimethyl-6-[2-methyl-4-(1H-pyrazolo[4,3-c]pyridin-4-yloxy)phenyl]pyrazin-2(1H)-one], in that order: 0.0281 µM and 0.674 µM.
With `Cc1cc(Oc2nccc3[nH]ccc23)ccc1-c1c(C)n[nH]c(=O)c1C` (single isomer, unassigned; ent-1) [Example 9, 4,6-dimethyl-5-[2-methyl-4-(1H-pyrrolo[3,2-c]pyridin-4-yloxy)phenyl]pyridazin-3(2H)-one, ENT-1], on Human D1 [1], the inhibitory constant (Ki) was determined as 0.00487 µM. In addition, on Human D1 [2] (setting [3]), the EC50 was 0.00733 µM.
In the same order, the values of `Cc1cc(Oc2nccc3[nH]ccc23)ccc1-c1c(C)cnnc1C` (single isomer, unassigned; ent-1) [Example 11, 4-[4-(3,5-dimethylpyridazin-4-yl)-3-methylphenoxy]-1H-pyrrolo[3,2-c]pyridine, ENT-1] are 0.0141 µM and 0.117 µM.
`Cc1cc(Oc2nccc3[nH]ccc23)ccc1-c1c(C)n[nH]c(=O)c1C` (single isomer, unassigned; ent-2) [Example 10, 4,6-dimethyl-5-[2-methyl-4-(1H-pyrrolo[3,2-c]pyridin-4-yloxy)phenyl]pyridazin-3(2H)-one, ENT-2]: on Human D1 [1], the Ki was found to be 0.00504 µM. In addition, the EC50 on Human D1 [2] (setting [3]) is 0.00431 µM.
With `Cc1cc(Oc2nccc3[nH]ccc23)ccc1-c1c(C)cnnc1C` (single isomer, unassigned; ent-2) [Example 12, 4-[4-(3,5-dimethylpyridazin-4-yl)-3-methylphenoxy]-1H-pyrrolo[3,2-c]pyridine, ENT-2], at Human D1 [1], the Ki stood at 0.0883 µM. For the same compound, on Human D1 [2] (setting [3]), the half-maximal effective concentration (EC50) is 0.52 µM.
Turning to `Cc1ncnc(C)c1-c1ccc(Oc2nccc3[nH]ccc23)cc1F` [Example 1, 4-[4-(4,6-dimethylpyrimidin-5-yl)-3-fluorophenoxy]-1H-pyrrolo[3,2-c]pyridine], the inhibition constant Ki on Human D1 [1] worked out at 0.0303 µM. The compound also came in with a half-maximal effective concentration (EC50) at Human D1 [2] of 0.176 µM.
In the same order, the values of `Cc1cc(Oc2nccc3[nH]ccc23)ccc1-c1c(C)cnn1C` [Example 2, 4-[4-(1,4-dimethyl-1H-pyrazol-5-yl)-3-methylphenoxy]-1H-pyrrolo[3,2-c]pyridine] are 0.0348 µM and 0.355 µM.
On to `Cc1cc(Oc2nccc3[nH]ccc23)ccc1-c1c(C)ncnc1C` [Example 5, 4-[4-(4,6-dimethylpyrimidin-5-yl)-3-methylphenoxy]-1H-pyrrolo[3,2-c]pyridine], for which, at Human D1 [1], the Ki came out at 0.013 µM. On Human D1 [2], this compound returned an EC50 of 0.146 µM.
Regarding `Cc1cc(Oc2nccc3[nH]ncc23)ccc1-c1c(C)ncnc1C` [Example 6, 4-[4-(4,6-dimethylpyrimidin-5-yl)-3-methylphenoxy]-1H-pyrazolo[4,3-c]pyridine], at Human D1 [1], the Ki amounted to 0.113 µM. On Human D1 [2], this compound came in with an EC50 of 0.568 µM.
`Cc1n[nH]c(=O)c(C)c1-c1ccc(Oc2nccc3[nH]ccc23)cc1` [Example 7, 4,6-dimethyl-5-[4-(1H-pyrrolo[3,2-c]pyridin-4-yloxy)phenyl]pyridazin-3(2H)-one]: at Human D1 [1], the inhibitory constant (Ki) was determined as 0.00412 µM. At Human D1 [2], this compound returned an EC50 of 0.0192 µM.
For `Cc1cc(Oc2nccc3[nH]ccc23)ccc1-c1c(C)ncc2nccn12` [Example 14, 6-methyl-5-[2-methyl-4-(1H-pyrrolo[3,2-c]pyridin-4-yloxy)phenyl]imidazo[1,2-a]pyrazine], in that order: 0.00798 µM and 0.137 µM.
On to `Cc1cc(Oc2nccc3[nH]ccc23)ccc1-c1cncc2nccn12` [Example 15, 5-[2-methyl-4-(1H-pyrrolo[3,2-c]pyridin-4-yloxy)phenyl]imidazo[1,2-a]pyrazine], for which, at Human D1 [1], the Ki worked out at 0.0975 µM. Also, the EC50 on Human D1 [2] stood at 0.417 µM.
Consider `Cc1ncnc(C#N)c1-c1ccc(Oc2nccc3[nH]ccc23)cc1F` [Example 16, 5-[2-fluoro-4-(1H-pyrrolo[3,2-c]pyridin-4-yloxy)phenyl]-6-methylpyrimidine-4-carbonitrile], for which the Ki at Human D1 [1] worked out at 0.0283 µM. The EC50 on Human D1 [2] turned out to be 0.396 µM.
As for `Cc1cc(Oc2nccc3[nH]ccc23)ccc1-c1c(C)ncnc1C#N` [Example 17, 6-methyl-5-[2-methyl-4-(1H-pyrrolo[3,2-c]pyridin-4-yloxy)phenyl]pyrimidine-4-carbonitrile], the Ki on Human D1 [1] amounted to 0.0392 µM. For the same compound, the EC50 on Human D1 [2] was 0.374 µM.
For `Cc1ncc2nccn2c1-c1ccc(Oc2nccc3[nH]ccc23)cc1F` [Example 18, 5-[2-fluoro-4-(1H-pyrrolo[3,2-c]pyridin-4-yloxy)phenyl]-6-methylimidazo[1,2-a]pyrazine], at Human D1 [1], the Ki amounted to 0.0294 µM. Besides, it took 0.141 µM to reach a half-maximal effect at Human D1 [2] (EC50).
Consider `Cc1ncc2nccn2c1-c1ccc(Oc2nccc3[nH]ccc23)cc1` [Example 19, 6-methyl-5-[4-(1H-pyrrolo[3,2-c]pyridin-4-yloxy)phenyl]imidazo[1,2-a]pyrazine], for which the Ki on Human D1 [1] worked out at 0.0159 µM. Moreover, the 50% effective concentration (EC50) at Human D1 [2] is 0.464 µM.
Regarding `Cc1ncnc(C)c1-c1ccc(Oc2nccc3[nH]ccc23)cc1` [Example 20, 4-[4-(4,6-dimethylpyrimidin-5-yl)phenoxy]-1H-pyrrolo[3,2-c]pyridine], the Ki on Human D1 [1] turned out to be 0.0443 µM. Besides, it took 0.238 µM to reach a half-maximal effect on Human D1 [2] (EC50).
For `Cc1ncnc(C)c1-c1ccc(Oc2nccc3[nH]ccc23)cc1C#N` [Example 21, 2-(4,6-dimethylpyrimidin-5-yl)-5-(1H-pyrrolo[3,2-c]pyridin-4-yloxy)benzonitrile], in that order: 0.102 µM and 0.247 µM.
`Cc1ncnc(C)c1-c1cc(F)c(Oc2nccc3[nH]ccc23)cc1F` [Example 22, 4-[4-(4,6-dimethylpyrimidin-5-yl)-2,5-difluorophenoxy]-1H-pyrrolo[3,2-c]pyridine]: the Ki on Human D1 [1] was 0.0548 µM. Besides, the response on Human D1 [2] was half-maximal at 0.538 µM (EC50).
Regarding `Cc1ncnc(C)c1-c1ccc(Oc2nccc3[nH]ccc23)c(F)c1F` [Example 23, 4-[4-(4,6-dimethylpyrimidin-5-yl)-2,3-difluorophenoxy]-1H-pyrrolo[3,2-c]pyridine], the Ki on Human D1 [1] is 0.0538 µM. At Human D1 [2], this compound returned an EC50 of 0.59 µM.
Take `Cc1ncnc(C)c1-c1ccc(Oc2nccc3[nH]ccc23)cc1Cl` [Example 24, 4-[3-chloro-4-(4,6-dimethylpyrimidin-5-yl)phenoxy]-1H-pyrrolo[3,2-c]pyridine]: the Ki on Human D1 [1] stood at 0.00984 µM. At Human D1 [2], this compound returned an EC50 of 0.102 µM.
